{"source": "patent US20080176787A1", "about": "“Parathyroid hormone analogues and methods of use” (priority 2005, published 2008)", "key": {"[1]": {"system": "post-menopausal women with low bone mineral density", "conditions": "human, in vivo", "excerpt": "(§1) A four month Phase II clinical study was undertaken to investigate the safety, tolerability and efficacy of Ostabolin-C™ in post-menopausal women with low bone mineral density (BMD). […] The clinical protocol is a 16-week phase II randomized, double-blind, placebo-controlled, parallel group, dose finding study to investigate the safety, tolerability and efficacy of Ostabolin-C™ in post-menopausal women with low bone mineral density (BMD). In this study, 261 patients underwent four months of daily dosing of placebo and four active groups. The active groups included daily administration of Ostabolin-C™ in doses of 7.5, 15, 30, and 45 μg. Ostabolin-C™ is formulated as a clear, colorless liquid provided in pre-filled syringes and injected subcutaneously (SC). Subjects self-administer SC 0.1 mL injections of their assigned dose of Ostabolin-C™ 7.5, 15, 30, and 45 μg or placebo daily for 16 weeks in rotating quadrants of the abdomen. The subjects were post-menopausal women (for at least 5 years) with moderate osteoporosis.\n(§2) The key endpoints for the study include change in mean BMD at the lumbar spine, as assessed by dual energy x-ray absorptiometry (DEXA), and measured by change from the Baseline visit. The Baseline visit is the first visit of the patient, before undergoing any treatment. Secondary efficacy endpoints include the following, as measured by change from Baseline visit:\n(§3) DEXA: Bone formation and resorption markers: • Mean femoral neck BMD • Serum osteocalcin • Mean trochanter BMD • Serum amino terminal pro-peptide of type 1 pro-collagen (P1NP) • Mean total hip BMD • Mean radial BMD (distal and midshaft) • Bone specific alkaline phosphatase (BSAP) • Bone mineral content (BMC) • Serum C-telopeptide (CTx) • Bone area • Serum N-telopeptide (NTx)"}, "[2]": {"system": "post-menopausal women with low bone mineral density", "test": "Dose/weight cutoff subgroup analysis and modeling of Phase II 30 and 45 μg cohorts", "assay_type": "in vivo, human", "conditions": "for Headache / HyperCa > 2.65 / HyperCa > 2.75 / N + H / Nausea: unit assumed", "procedure": "The effect of the dose optimization strategy was evaluated by performing subgroup analyses using actual data from the 30 and 45 μg cohorts of the study (i.e. creation of a new subgroup by combining all patients below the weight cutoff from the 30 μg dose group with all patients above the weight cutoff from the 45 μg dose group, shown in the table below).\nA variety of new subgroups were created out of the patients who participated in the Phase II clinical trial. The groups from Phase II are shown above, where each group received a single dose, either 7.5 μg, 15 μg, 30 μg, 45 μg, or placebo. The 30 μg and 45 μg dose groups were re-grouped, according to the weight of the patient, and over 100 new sub-groups were created. This approach of creating new sub-groups out of dosages which are relatively close to each other, is a novel way of conducting Phase II studies.\nFor the 105 patients who were originally given 30 or 45 μg, new groups were created by utilizing multiple weight cut-offs in increments of 0.5 kg. For example, one new group had the weight cut-off at 59 kg, meaning that every patient from the original low dose (30 μg) group who weighed less than 59 kg and every patient who weighed more than 59 kg from the original high dose (45 μg) group formed a new cohort. This new cohort represents a dose/weight cut-off of 59 kg, a group in which patients weighing less than 59 kg receive the low dose (30 μg) and patients weighing more than 59 kg receive the high dose (45 μg). Another example can be illustrated using a weight cutoff of 68 kg. Such a group would include all those patients who weigh less than 68 kg and who originally received the low dose (30 μg) as well as all those patients who weigh more than 68 kg and who originally received the high dose (45 μg). By using this method, over 100 separate cohorts were created by altering the dose/weight cut-off in increments of 0.5 kg. A summary of the data generated by these new dose/weight cut-off cohorts, using 68 kg and 59 kg as the dose/weight cut-off, is shown in the table below.\nThe table above illustrates the actual clinical profile obtained for two dose/weight cutoffs (59 kg which produces a higher exposure profile since more patients receive the higher dose and 68 kg in which more patients receive the lower dose). […] One problem with simple subgroup analysis is that endpoints with a small number of events can skew the observed profile because of large changes in incidence when one of these events moves from one side of the weight cutoff to the other. Therefore, the dose/weight cutoff methodology was applied systematically to the data from the 30 and 45 μg dose groups starting at the lowest weight patient in the study (corresponds to the 45 μg profile because everyone receives the high dose) and increasing the cutoff by 0.5 kg increments through 100 kg (corresponding to the 30 μg profile because everyone receives the low dose). The multiple cutoff profiles thus obtained when graphed can then smooth out the effect of individual events as illustrated for the effect on hypercalcemia. The effect of weight cutoff on clinical profile can then be modeled to eliminate the skewing effects of individual data points as illustrated in FIG. 37-40. This approach has been applied to primary and secondary endpoints in the study.\nAn important benefit of this modeling is that it is possible to project a clinical profile for a specific weight cutoff/dose exposure window with a high degree of accuracy since the effect of individual events is eliminated. The anticipated hypercalcemia and lumbar spine BMD profile for a 68 kg cutoff is illustrated in the table below, which compares the modeled hypercalcemia and lumbar spine BMD changes and the actual Phase II data for the 68 kg weight cutoff. It will also be possible to model the effects of even narrower exposure windows by using multiple dose cutoffs and different doses."}, "[3]": {"system": "post-menopausal women with low bone mineral density", "test": "Phase II clinical study of subcutaneous Ostabolin-C in post-menopausal women with low BMD (BMD, bone markers, serum calcium, side effects)", "conditions": "for Sitting HR / Headache / HyperCa > 2.65 / HyperCa > 2.75 / N + H / Nausea: 4 months; for Headache / HyperCa > 2.65 / HyperCa > 2.75 / N + H / Nausea: unit assumed", "excerpt": "as §1, §2, §3"}, "[4]": {"test": "Plasma pharmacokinetics of Ostabolin-C formulations in female rats, single 200 μg/kg SC, IM, IV", "assay_type": "in vivo", "conditions": "rat; for Vd: iv", "procedure": "Formulations were prepared once only as follows: The bulk freeze-dried peptide was dissolved in 0.01 M acetic acid (supplied by Fisher Scientific, Loughborough, UK) in a 1:1 ratio, re-aliquotted into dosing vials and deep frozen (approximately −70° C.). The vials were freeze-dried at <−20° C. and stored frozen until required. The freeze-dried aliquots for injection were re-constituted with water for injection (supplied by Animalcare Ltd, York, UK). The peptide was dissolved in an appropriate volume of purified water to an approximate concentration of 2 to 3 mg/mL. Phosphate buffered saline (pH 7.4) was added to give the final required concentration (at approximately pH 7.2). The capped vial(s) were mixed thoroughly to ensure the peptide was fully dissolved. Aseptic techniques and glass vials were used throughout dose preparation. The dose was not sterile filtered. […] The calculated amounts of mannitol, sodium acetate trihydrate and glacial acetic acid were weighed and then dissolved in the correct amount of water for injection. The test article was weighed, added to the solution and stirred to dissolve. The pH was adjusted to 4.5 with 0.1N NaOH or HCl (supplied by Covance, Harrogate) depending on initial pH. Water was added to obtain the required volume.\nThe calculated amount of lipoic acid was weighed and transferred to a suitable container and then dispersed with water for injection. The pH was adjusted to 7.7 with 1N NaOH (supplied by BDH Laboratory Supplies, a division of Merck Ltd, Poole, UK). The test article was weighed, added and stirred to dissolve. The pH was adjusted to 7.5 with 1N NaOH. Propylene glycol was added to obtain the correct volume.\nThe calculated amount of DL-Methionine was weighed and transferred to a suitable container and dispersed in water for injection. The test article was weighed and added to the solution. The pH was adjusted to 7.5 with 0.1N NaOH. Ethanol was added to make the required volume."}}, "note": "Where two headings read alike, the source gives them in different places. Positions of bridges follow the written chain, without caps; N, C: chain ends. Residues, ends and D or L forms follow the SMILES beside them."}
{"smiles": "CC[C@H](C)[C@H](NC(=O)[C@H](CCC(=O)O)NC(=O)[C@H](CO)NC(=O)[C@@H](NC(=O)[C@@H](N)CO)C(C)C)C(=O)N[C@@H](CCC(N)=O)C(=O)N[C@@H](CC(C)C)C(=O)N[C@@H](CCSC)C(=O)N[C@@H](Cc1c[nH]cn1)C(=O)N[C@@H](CC(N)=O)C(=O)N[C@@H](CC(C)C)C(=O)NCC(=O)N[C@@H](CCCCN)C(=O)N[C@@H](Cc1c[nH]cn1)C(=O)N[C@@H](CC(C)C)C(=O)N[C@@H](CC(N)=O)C(=O)N[C@@H](CO)C(=O)N[C@@H](CCSC)C(=O)N[C@@H](CCC(=O)O)C(=O)N[C@@H](CCCN=C(N)N)C(=O)N[C@H](C(=O)N[C@H]1CCC(=O)NCCCC[C@@H](C(=O)N[C@@H](CC(C)C)C(=O)N[C@@H](CC(C)C)C(=O)N[C@@H](CCC(N)=O)C(=O)N[C@@H](CC(=O)O)C(=O)N[C@H](C(N)=O)C(C)C)NC(=O)[C@H](CCCN=C(N)N)NC(=O)[C@H](CC(C)C)NC(=O)[C@H](Cc2c[nH]c3ccccc23)NC1=O)C(C)C", "note": "[Ostabolin-C, [Leu^27]cyclo[Glu^22-Lys^26]-PTH-(1-31)-NH2] (H-SVSEIQLMHNLGKHLNSMERVEWLRKLLQDV-NH2; lactam 22-26)", "values": [{"measurement": "Pts > 2.75 mmol/L (sustained)", "setting": "[1]", "result": 0}, {"measurement": "% of hypercalcemia", "setting": "[2]; 4 months, weight cutoff of approximately 68 kg (FIG. 37)", "result": "less than 15%"}, {"measurement": "Sitting HR", "setting": "[2]; 59 kg cut", "result": 4.1}, {"measurement": "Headache", "setting": "[2]; 59 kg cut", "result": 20.6, "unit": "%"}, {"measurement": "HyperCa > 2.65", "setting": "[2]; 59 kg cut", "result": 22, "unit": "%"}, {"measurement": "HyperCa > 2.75", "setting": "[2]; 59 kg cut", "result": 6, "unit": "%"}, {"measurement": "N + H", "setting": "[2]; 59 kg cut", "result": 12.7, "unit": "%"}, {"measurement": "Nausea", "setting": "[2]; 59 kg cut", "result": 31.7, "unit": "%"}, {"measurement": "Sitting HR", "setting": "[2]; 68 kg cut", "result": 3.1}, {"measurement": "Headache", "setting": "[2]; 68 kg cut", "result": 12.8, "unit": "%"}, {"measurement": "HyperCa > 2.65", "setting": "[2]; 68 kg cut", "result": 12.8, "unit": "%"}, {"measurement": "HyperCa > 2.75", "setting": "[2]; 68 kg cut", "result": 7.7, "unit": "%"}, {"measurement": "N + H", "setting": "[2]; 68 kg cut", "result": 10.6, "unit": "%"}, {"measurement": "Nausea", "setting": "[2]; 68 kg cut", "result": 31.9, "unit": "%"}, {"measurement": "HyperCa > 2.65", "setting": "[2]; 68 kg cutoff, modeled", "result": 14.8, "unit": "%"}, {"measurement": "HyperCa > 2.75", "setting": "[2]; 68 kg cutoff, modeled", "result": 7.6, "unit": "%"}, {"measurement": "Mean [Ca]", "setting": "[3]; 30 μg (4 months)", "result": 0.040, "unit": "mmol/L"}, {"measurement": "hypercalcemia seen at least once, % of group", "setting": "[3]; 30 μg doses (placebo 5%)", "result": 5, "unit": "%"}, {"measurement": "Sitting HR", "setting": "[3]; 30 ug", "result": 2.4}, {"measurement": "Headache", "setting": "[3]; 30 ug", "result": 19.6, "unit": "%"}, {"measurement": "HyperCa > 2.65", "setting": "[3]; 30 ug", "result": 4.5, "unit": "%"}, {"measurement": "HyperCa > 2.75", "setting": "[3]; 30 ug", "result": 2.3, "unit": "%"}, {"measurement": "N + H", "setting": "[3]; 30 ug", "result": 7.8, "unit": "%"}, {"measurement": "Nausea", "setting": "[3]; 30 ug", "result": 25.5, "unit": "%"}, {"measurement": "Mean [Ca]", "setting": "[3]; 45 μg (4 months)", "result": 0.070, "unit": "mmol/L"}, {"measurement": "Sitting HR", "setting": "[3]; 45 ug", "result": 4.0}, {"measurement": "Headache", "setting": "[3]; 45 ug", "result": 21.8, "unit": "%"}, {"measurement": "HyperCa > 2.65", "setting": "[3]; 45 ug", "result": 27.3, "unit": "%"}, {"measurement": "HyperCa > 2.75", "setting": "[3]; 45 ug", "result": 9.1, "unit": "%"}, {"measurement": "N + H", "setting": "[3]; 45 ug", "result": 12.7, "unit": "%"}, {"measurement": "Nausea", "setting": "[3]; 45 ug", "result": 29.1, "unit": "%"}, {"measurement": "percent of abnormal serum calcium", "setting": "[3]; doses up to and including 30 μg (FIG. 14)", "result": "no notable difference from placebo"}, {"measurement": "bioavailability", "setting": "[4]; female, 200 ug/kg, IM, read-out: Absolute bioavailability", "result": 8.7, "unit": "%"}, {"measurement": "level at 2 min", "setting": "[4]; female, 200 ug/kg, IV, not quantified, read-out: plasma concentrations at 2 minutes post the end of the infusion", "result": "> 0.61", "unit": "µg/mL"}, {"measurement": "bioavailability", "setting": "[4]; female, 200 ug/kg, SC, read-out: Absolute bioavailability (Fabs)", "result": "< 2", "unit": "%"}, {"measurement": "Vd", "setting": "[4]; female, 200 ug/kg, IV, female rats, read-out: Vss", "result": 0.479, "unit": "L/kg"}, {"measurement": "Vd", "setting": "[4]; female, 200 ug/kg, IV, female rats, read-out: Vz", "result": 0.471, "unit": "L/kg"}, {"measurement": "half-life", "setting": "[4]; female, other: SC, 200 ug/kg, SC, IM and IV dose routes, read-out: terminal elimination half life, where calculable", "result": "7.2 to 42.4", "unit": "min"}, {"measurement": "clearance", "setting": "[4]; 200 ug/kg, IV, female rats", "result": 2.72, "unit": "L/h/kg"}, {"measurement": "Tmax", "setting": "[4]; IV, female rats, post end of infusion", "result": 5, "unit": "min"}]}
